According to patent publication US6110967A, “Epoxysuccinamide derivative or salt thereof” (Taiho Pharmaceuticals Co., Ltd., priority 1997, dated 2000):
Where a name gives a salt, the structure may show the parent alone.

Tests used:
[1] = molecular target: T1, Cathepsin L (Rattus norvegicus, UniProt P07154); assay: Determination of inhibition activity against cathepsin L (substrate Z-Phe-Arg-MCA); assay type: biochemical; conditions: cathepsin L purified from rat liver, pH 5.5, 30° C., 10 minutes
T1 construct: extracted from a rat liver and completely purified; from tissue; host or cells: rat liver
Protocol: (§1) Determination of inhibition activity against cathepsin L and cathepsin B:
Cathepsin L that extracted from a rat liver and completely purified in accordance with the method described in J. Biochem., 84, 650-671 (1978) was used, and as a substrate thereof, Z-Phe-Arg-MCA was used.
(§2) Each cathepsin was diluted with a diluent (0.1% Brij 35) to adjust its concentration to 0.3 U (0.1 U: a concentration at which 1.0 nmol of MCA is released per minute at 37° C.). An activator/buffer (340 mM sodium acetate, 60 mM acetic acid, 4 mM disodium EDTA; pH 5.5; 250 μl) was added to the solution (500 μl). After the mixture was incubated for 1 minute at 30° C., a specimen solution of the predetermined concentration and a substrate solution ([…]) were added to conduct a reaction for 10 minutes. The reaction was stopped with a reaction terminator (100 mM sodium monochloroacetate, […] sodium acetate, […] acetic acid; pH 4.3; 1 ml) to determine the fluorescence intensity of aminomethylcoumarin isolated under fluorescence 460 nm in wavelength obtained by excitation at a wavelength of 370 nm using a fluorometer.

[2] = molecular target: T2, Cathepsin B (Rattus norvegicus, UniProt P00787); assay: Determination of inhibition activity against cathepsin B (substrate Z-Arg-Arg-MCA); assay type: biochemical; conditions: cathepsin B purified from rat liver, pH 5.5, 30° C., 10 minutes
T2 construct: extracted from a rat liver and completely purified; from tissue; host or cells: rat liver
Protocol: as §1
One that extracted from a rat liver and completely purified in accordance with the method described in Biochem. Biophys. Res. Commun., 83, 513-520 (1978) was used as cathepsin B, and as a substrate thereof, Z-Arg-Arg-MCA was used.
as §2

T1 sequence (P07154 114-288 limits assumed): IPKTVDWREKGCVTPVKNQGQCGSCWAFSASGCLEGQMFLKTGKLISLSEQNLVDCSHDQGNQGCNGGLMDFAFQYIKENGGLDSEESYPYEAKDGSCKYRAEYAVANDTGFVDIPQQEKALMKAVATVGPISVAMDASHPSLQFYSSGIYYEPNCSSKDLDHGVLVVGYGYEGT
T1 sequence (P07154 291-334 limits assumed): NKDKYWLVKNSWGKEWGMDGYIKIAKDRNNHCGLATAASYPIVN
T2 sequence (P00787 80-126 limits assumed): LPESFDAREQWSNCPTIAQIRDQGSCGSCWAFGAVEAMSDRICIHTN
T2 sequence (P00787 129-333 limits assumed): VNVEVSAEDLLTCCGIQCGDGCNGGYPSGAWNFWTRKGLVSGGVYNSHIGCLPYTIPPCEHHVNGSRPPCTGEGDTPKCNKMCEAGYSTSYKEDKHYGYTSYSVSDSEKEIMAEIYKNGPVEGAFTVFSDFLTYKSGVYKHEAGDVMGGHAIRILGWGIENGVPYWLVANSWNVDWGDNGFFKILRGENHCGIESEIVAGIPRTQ

Row | Structure (SMILES) | IC50 [1] | IC50 [2] | IC50 (M) Cathepsin B [2]
1 | CN(C)C(=O)[C@H](Cc1ccccc1)NC(=O)[C@H]1O[C@@H]1C(=O)NCCNc1ccc([N+](=O)[O-])cn1 [Compound 46, N-{L-3-trans-[2-(5-Nitropyridin-2-yl)aminoethylcarbamoyl]oxirane-2-carbonyl}-L-phenylalanine dimethylamide] | 34 nM | 85000 nM | –
2 | CN(C)C(=O)[C@H](Cc1ccccc1)NC(=O)[C@H]1O[C@@H]1C(=O)N1CCN(c2nccc(N)n2)CC1 [Compound 90] | 97 nM | > 10000 nM | –
3 | CC(C)(C)OC(=O)NCc1ccc(NC(=O)[C@H]2O[C@@H]2C(=O)N[C@@H](Cc2ccccc2)C(=O)NCCc2ccccc2)cc1 [Compound 12, N-{L-3-trans-[4-(t-Butoxycarbonylaminomethyl)phenylcarbamoyl]oxirane-2-carbonyl}-L-phenylalanine-2-phenylethylamide] | 2.5 nM | > 10000 nM | –
4 | CN(C)C(=O)[C@H](Cc1ccccc1)NC(=O)[C@H]1O[C@@H]1C(=O)Nc1ccc(CN)cc1 [Compound 8, N-{L-3-trans-[4-(Aminomethyl)phenylcarbamoyl]oxirane-2-carbonyl}-L-phenylalanine dimethylamide hydrochloride] | < 100 nM | > 100000 nM | –
5 | CN(C)C(=O)[C@H](Cc1ccccc1)NC(=O)[C@H]1O[C@@H]1C(=O)Nc1ccc(Oc2ccccc2)cc1 [Compound 48, N-[L-3-trans-(4-Phenoxyphenylcarbamoyl)oxirane-2-carbonyl]-L-phenylalanine dimethylamide] | 60 nM | 45000 nM | –
6 | CC(=N)Nc1ccc(CCNC(=O)[C@H]2O[C@@H]2C(=O)N[C@@H](Cc2ccccc2)C(=O)N(C)C)cc1 [Compound 86, N-{L-3-trans-[2-(4-Acetoamidinophenyl)ethylcarbamoyl]oxirane-2-carbonyl}-L-phenylalanine dimethylamide hydrobromide] | 46 nM | > 10000 nM | –
7 | CNC(=O)[C@H](Cc1ccccc1)NC(=O)[C@H]1O[C@@H]1C(=O)NCCc1ccccn1 [Compound 62, N-{L-3-trans-[2-(Pyridin-2-yl)ethylcarbamoyl]oxirane-2-carbonyl}-L-phenylalanine methylamide] | < 1 nM | > 100000 nM | –
8 | CN(C)C(=O)[C@H](Cc1ccccc1)NC(=O)[C@H]1O[C@@H]1C(=O)Nc1ccc(CNC(=O)c2ccccc2)cc1 [Compound 44, N-{L-3-trans-[4-(Benzoylaminomethyl)phenylcarbamoyl]oxirane-2-carbonyl}-L-phenylalanine dimethylamide] | 6 nM | 77000 nM | –
9 | CN(C)C(=O)[C@H](Cc1ccccc1)NC(=O)[C@H]1O[C@@H]1C(=O)NCCc1ccc(N)cc1 [Compound 73, N-{L-3-trans-[2-(4-Aminophenyl)ethylcarbamoyl]oxirane-2-carbonyl}-L-phenylalanine dimethylamide] | 94 nM | – | No inhibition
10 | CN(C)C(=O)[C@H](Cc1ccccc1)NC(=O)[C@H]1O[C@@H]1C(=O)NCCc1csc(N)n1 [Compound 39, N-{L-3-trans-[2-(2-Aminothiazol-4-yl)ethylcarbamoyl]oxirane-2-carbonyl}-L-phenylalanine dimethylamide hydrochloride] | 350 nM | > 100000 nM | –
11 | CCc1ccc(NC(=O)[C@H]2O[C@@H]2C(=O)N[C@@H](Cc2ccccc2)C(=O)N(C)C)cc1 [Compound 29, N-[L-3-trans-(4-Ethylphenylcarbamoyl)oxirane-2-carbonyl]-L-phenylalanine dimethylamide] | 2.2 nM | > 100000 nM | –
12 | CN(C)C(=O)[C@H](Cc1ccccc1)NC(=O)[C@H]1O[C@@H]1C(=O)NCCc1ccc(N)cn1 [Compound 77, N-{L-3-trans-[2-(5-Aminopyridin-2-yl)ethylcarbamoyl]oxirane-2-carbonyl}-L-phenylalanine dimethylamide] | 82 nM | > 10000 nM | –
13 | Cc1cc(NC(=O)[C@H]2O[C@@H]2C(=O)N[C@@H](Cc2ccccc2)C(=O)N(C)C)no1 [Compound 41] | 33 nM | > 10000 nM | –
14 | CN(C)C(=O)[C@H](Cc1ccccc1)NC(=O)[C@H]1O[C@@H]1C(=O)Nc1ccc(C(C)(C)C)cc1 [Compound 37, N-[L-3-trans-(4-t-Butylphenylcarbamoyl)oxirane-2-carbonyl]-L-phenylalanine dimethylamide] | 45 nM | > 100000 nM | –
15 | CN(C)C(=O)[C@H](Cc1ccccc1)NC(=O)[C@H]1O[C@@H]1C(=O)Nc1cccc(CN)c1 [Compound 6, N-{L-3-trans-[3-(Aminomethyl)phenylcarbamoyl]oxirane-2-carbonyl}-L-phenylalanine dimethylamide hydrochloride] | 200 nM | > 100000 nM | –
16 | CN(C)C(=O)[C@H](Cc1ccccc1)NC(=O)[C@H]1O[C@@H]1C(=O)N1CCN(Cc2ccccc2)CC1 [Compound 9, N-[L-3-trans-(4-Benzylpiperazin-1-yl-carbonyl)oxirane-2-carbonyl]-L-phenylalanine dimethylamide] | 850 nM | > 100000 nM | –
17 | CN(C)C(=O)[C@H](Cc1ccccc1)NC(=O)[C@H]1O[C@@H]1C(=O)N1CCN(C(=O)OC(C)(C)C)CC1 [Compound 15, N-[L-3-trans-(4-t-Butoxycarbonylpiperazin-1-yl-carbonyl)-oxirane-2-carbonyl]-L-phenylalanine dimethylamide] | 220 nM | > 100000 nM | –
18 | CN(C)C(=O)[C@H](Cc1ccccc1)NC(=O)[C@H]1O[C@@H]1C(=O)NCCc1ccccn1 [Compound 56, N-{L-3-trans-[2-(Pyridin-2-yl)ethylcarbamoyl]oxirane-2-carbonyl}-L-phenylalanine dimethylamide] | 47 nM | > 10000 nM | –
19 | CN(C)C(=O)[C@H](Cc1ccccc1)NC(=O)[C@H]1O[C@@H]1C(=O)N(CCN)c1ccccc1 [Compound 11, N-{L-3-trans-[N-(2-Aminoethyl)-N-phenylcarbamoyl]oxirane-2-carbonyl}-L-phenylalanine dimethylamide hydrochloride] | 2400 nM | – | No inhibition
20 | CN(C)C(=O)[C@H](Cc1ccccc1)NC(=O)[C@H]1O[C@@H]1C(=O)NC1CCN(Cc2ccccc2)CC1 [Compound 18, N-{L-3-trans-[(1-Benzylpiperidin-4-yl)carbamoyl]oxirane-2-carbonyl}-L-phenylalanine dimethylamide hydrochloride] | 290 nM | > 100000 nM | –
21 | CN(C)C(=O)[C@H](Cc1ccccc1)NC(=O)[C@H]1O[C@@H]1C(=O)NCCNC(=O)OCc1ccccc1 [Compound 22, N-{L-3-trans-[2-(Benzyloxycarbonylamino)ethylcarbamoyl]oxirane-2-carbonyl}-L-phenylalanine dimethylamide] | 470 nM | > 100000 nM | –
22 | CN(C)C(=O)[C@H](Cc1ccccc1)NC(=O)[C@H]1O[C@@H]1C(=O)NCc1ccc(N)cc1 [Compound 20, N-[L-3-trans-(4-Aminobenzylcarbamoyl)oxirane-2-carbonyl]-L-phenylalanine dimethylamide hydrochloride] | 670 nM | > 100000 nM | –
